Laboratory results taken from article PMC3950950, “Fluorescent sensors for activity and regulation of the nitrate transceptor CHL1/NRT1.1 and oligopeptide transporters” (eLife, 2014).
Residues, ends and D or L forms follow the SMILES beside them.

What was measured:
Type in all cases: cell-based
[1] = molecular target: T1, NiTrac1 (CHL1/NRT1.1/NPF6.3 fusion) (Arabidopsis thaliana, UniProt Q05085); assay: fluorescence response (donor quenching) of sensor in yeast, plate reader; conditions: 50 mM MES pH 5.5; high-affinity phase of biphasic response (low-affinity phase is a second site); excitation 428 nm
T1 construct: full-length ORF between N-terminal Aphrodite t9 (yellow FP) and C-terminal mCerulean (pDRFlip30); expressed in yeast BJ5465; intact cells
T1 sequence (Q05085 1-590): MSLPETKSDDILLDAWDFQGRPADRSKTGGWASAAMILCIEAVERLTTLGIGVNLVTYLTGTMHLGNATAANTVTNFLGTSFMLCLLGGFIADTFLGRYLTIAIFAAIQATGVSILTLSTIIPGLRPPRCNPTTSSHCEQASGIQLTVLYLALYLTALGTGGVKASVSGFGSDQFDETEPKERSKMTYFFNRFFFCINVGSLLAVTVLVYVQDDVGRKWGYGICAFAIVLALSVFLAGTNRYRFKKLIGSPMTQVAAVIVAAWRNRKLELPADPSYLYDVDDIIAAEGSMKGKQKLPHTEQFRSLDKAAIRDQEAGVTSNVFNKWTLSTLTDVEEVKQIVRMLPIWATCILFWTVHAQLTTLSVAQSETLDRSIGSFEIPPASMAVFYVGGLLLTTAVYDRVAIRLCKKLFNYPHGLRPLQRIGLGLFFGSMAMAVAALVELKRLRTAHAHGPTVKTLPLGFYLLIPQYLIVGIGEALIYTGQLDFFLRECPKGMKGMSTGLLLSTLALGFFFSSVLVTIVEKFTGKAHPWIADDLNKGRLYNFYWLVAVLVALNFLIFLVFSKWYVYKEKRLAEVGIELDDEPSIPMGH

CHL1/NRT1.1/NPF6.3 = molecular target: T2, CHL1/NRT1.1/NPF6.3 (Arabidopsis thaliana, UniProt Q05085); assay: […]-nitrate uptake and TEVC currents in Xenopus oocytes; conditions: 0.25 and 10 mM K15NO3, pH 5.5 (uptake); 0.5 and 10 mM CsNO3 (TEVC)
T2 construct: CHL1 cDNA without fluorescent proteins in pOO2-GW; cRNA-injected Xenopus laevis oocytes
T2 sequence (Q05085 1-590): T1 sequence (Q05085 1-590)

PepTrac4 (PTR4 fusion) = molecular target: T3, PepTrac4 (PTR4 fusion) (Arabidopsis thaliana, UniProt Q84WG0); assay: FRET ratio change of sensor in yeast; conditions: 0.5 mM diglycine; 50 mM MES pH 5.5; excitation 428 nm
T3 construct: gene NPF8.4; full-length ORF between N-terminal Aphrodite and C-terminal mCerulean; expressed in yeast; intact cells
T3 sequence (Q84WG0 1-545): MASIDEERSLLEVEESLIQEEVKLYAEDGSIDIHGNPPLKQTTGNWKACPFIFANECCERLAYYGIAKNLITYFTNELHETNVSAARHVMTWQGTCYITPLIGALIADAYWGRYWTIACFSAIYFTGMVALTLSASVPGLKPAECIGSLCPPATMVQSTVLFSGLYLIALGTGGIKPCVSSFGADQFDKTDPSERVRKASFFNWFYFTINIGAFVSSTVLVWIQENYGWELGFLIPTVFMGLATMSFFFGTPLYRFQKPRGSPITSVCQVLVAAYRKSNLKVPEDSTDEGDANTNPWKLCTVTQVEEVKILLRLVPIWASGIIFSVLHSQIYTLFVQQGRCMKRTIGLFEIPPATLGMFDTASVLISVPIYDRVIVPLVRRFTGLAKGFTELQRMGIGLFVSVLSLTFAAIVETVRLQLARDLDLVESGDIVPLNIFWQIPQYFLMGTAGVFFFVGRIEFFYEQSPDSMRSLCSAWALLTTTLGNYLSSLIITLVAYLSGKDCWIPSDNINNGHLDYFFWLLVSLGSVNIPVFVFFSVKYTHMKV

PepTrac1 (PTR1 fusion) = molecular target: T4, PepTrac1 (PTR1 fusion) (Arabidopsis thaliana, UniProt Q9M390); assay: fluorescence response (donor quenching) of sensor in yeast; conditions: 0.5 mM diglycine; 50 mM MES pH 5.5; excitation 428 nm
T4 construct: gene NPF8.1; full-length ORF between N-terminal Aphrodite and C-terminal mCerulean; expressed in yeast; intact cells
T4 sequence (Q9M390 1-570): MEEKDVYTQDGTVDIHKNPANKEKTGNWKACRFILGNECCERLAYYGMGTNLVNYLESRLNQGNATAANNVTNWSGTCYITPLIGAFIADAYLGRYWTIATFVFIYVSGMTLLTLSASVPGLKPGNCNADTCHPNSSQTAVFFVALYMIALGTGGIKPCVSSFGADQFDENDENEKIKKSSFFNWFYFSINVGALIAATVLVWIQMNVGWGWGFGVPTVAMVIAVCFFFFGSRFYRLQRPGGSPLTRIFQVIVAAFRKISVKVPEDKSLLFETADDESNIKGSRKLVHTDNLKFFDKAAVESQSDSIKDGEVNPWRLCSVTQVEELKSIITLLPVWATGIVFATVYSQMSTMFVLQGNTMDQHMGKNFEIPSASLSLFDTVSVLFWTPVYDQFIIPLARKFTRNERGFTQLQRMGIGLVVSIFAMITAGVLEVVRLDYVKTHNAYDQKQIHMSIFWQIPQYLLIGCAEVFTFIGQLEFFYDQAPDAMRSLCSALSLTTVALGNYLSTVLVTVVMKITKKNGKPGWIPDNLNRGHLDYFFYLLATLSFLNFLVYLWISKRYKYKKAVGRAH

PepTrac2 (PTR2 fusion) = molecular target: T5, PepTrac2 (PTR2 fusion) (Arabidopsis thaliana, UniProt P46032); assay: as above; conditions: 0.5 mM diglycine; 50 mM MES pH 5.5; excitation 428 nm
T5 construct: gene NPF8.3; full-length ORF between N-terminal Aphrodite and C-terminal mCerulean; expressed in yeast; intact cells
T5 sequence (P46032 1-585): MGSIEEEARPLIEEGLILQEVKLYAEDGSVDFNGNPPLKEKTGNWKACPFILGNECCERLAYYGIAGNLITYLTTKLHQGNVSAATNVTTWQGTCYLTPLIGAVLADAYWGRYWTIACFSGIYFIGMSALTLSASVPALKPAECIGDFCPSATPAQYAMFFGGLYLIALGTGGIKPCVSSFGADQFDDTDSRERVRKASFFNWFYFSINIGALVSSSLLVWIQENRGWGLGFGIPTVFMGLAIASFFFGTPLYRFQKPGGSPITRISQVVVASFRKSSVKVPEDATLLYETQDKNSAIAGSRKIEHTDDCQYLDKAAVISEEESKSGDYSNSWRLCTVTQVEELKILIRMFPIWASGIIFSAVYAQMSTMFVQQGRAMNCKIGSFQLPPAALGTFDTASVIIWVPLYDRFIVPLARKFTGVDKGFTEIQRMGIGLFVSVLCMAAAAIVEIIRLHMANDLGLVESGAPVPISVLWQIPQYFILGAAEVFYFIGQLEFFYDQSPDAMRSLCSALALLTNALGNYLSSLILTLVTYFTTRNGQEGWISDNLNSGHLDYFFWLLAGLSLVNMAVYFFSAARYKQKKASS

PepTrac5 (PTR5 fusion) = molecular target: T6, PepTrac5 (PTR5 fusion) (Arabidopsis thaliana, UniProt Q9LFB8); assay: as above; conditions: 0.5 mM diglycine; 50 mM MES pH 5.5; excitation 428 nm
T6 construct: gene NPF8.2; full-length ORF between N-terminal Aphrodite and C-terminal mCerulean; expressed in yeast; intact cells
T6 sequence (Q9LFB8 1-570): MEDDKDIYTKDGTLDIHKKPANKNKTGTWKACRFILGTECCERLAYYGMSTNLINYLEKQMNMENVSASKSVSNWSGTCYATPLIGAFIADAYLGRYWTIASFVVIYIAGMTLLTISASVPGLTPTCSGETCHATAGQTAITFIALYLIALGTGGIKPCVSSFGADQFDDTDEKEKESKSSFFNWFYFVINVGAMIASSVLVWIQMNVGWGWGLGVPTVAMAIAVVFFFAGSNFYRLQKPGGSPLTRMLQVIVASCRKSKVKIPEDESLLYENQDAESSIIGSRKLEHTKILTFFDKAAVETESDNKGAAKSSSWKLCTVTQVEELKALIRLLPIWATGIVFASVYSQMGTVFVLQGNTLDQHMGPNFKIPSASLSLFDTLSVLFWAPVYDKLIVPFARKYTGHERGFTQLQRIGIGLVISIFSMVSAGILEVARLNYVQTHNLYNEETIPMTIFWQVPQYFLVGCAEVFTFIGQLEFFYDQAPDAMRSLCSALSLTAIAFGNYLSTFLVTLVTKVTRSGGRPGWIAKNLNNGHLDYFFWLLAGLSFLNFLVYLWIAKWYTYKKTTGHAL

Km [1]	SMILES	15N-nitrate uptake and TEVC currents in Xenopus oocytes (CHL1/NRT1.1/NPF6.3)	FRET ratio change of sensor in yeast (PepTrac4 (PTR4 fusion))	fluorescence response (donor quenching) of sensor in yeast (PepTrac1 (PTR1 fusion))	fluorescence response (donor quenching) of sensor in yeast (PepTrac2 (PTR2 fusion))	fluorescence response (donor quenching) of sensor in yeast (PepTrac5 (PTR5 fusion))
~ 75.1 ± 21 μM	O=[N+]([O-])O [nitrate]	In response to nitrate addition, CHL1 expressing oocytes showed an inward current				
	NCC(=O)NCC(=O)O [diglycine] (H-Gly-Gly-OH)		PepTrac4 responded to substrate addition with a ratio change	PepTrac1, PepTrac2, and PepTrac5 sensors all responded with donor quenching	PepTrac1, PepTrac2, and PepTrac5 sensors all responded with donor quenching	PepTrac1, PepTrac2, and PepTrac5 sensors all responded with donor quenching
